Test results published in US9913809B1, “Anti-cancer activity of (E)-1-(3′,4′-dimethoxyphenyl) butadiene” (SAMI LABS LIMITED, priority 2016, dated 2018).
Values after ≈ are worked out from the molar mass of the structure shown.

Columns and labels:
[1] = test system: L-selectin (CD 62L); assay: Flow cytometry, L-selectin expression in HCT colorectal carcinoma cells; type: cell-based, human; details: TNF-alpha and IL-1beta 10 ng/ml, 72 hours
[2] = test system: L-selectin (CD 62L); assay: Flow cytometry, L-selectin expression in K562 lymphoblastoma cells; type: cell-based, human; details: DMPBD 20 μg/ml, TNF-alpha and IL-1beta 10 ng/ml, 72 hours
[3] = test system: P-selectin (CD 62P); assay: Flow cytometry, P-selectin expression in pancreatic carcinoma cells; type: cell-based, human; details: flow cytometric studies
[4] = test system: Caco-2 cancer cell line (Colon Carcinoma); assay: MTT cytotoxicity assay, Caco-2; type: cell-based; details: Homo sapiens, Caco-2, colon carcinoma
Procedure: (§1) Human pancreatic PANC-1 cancer cell line (pancreatic carcinoma cells), human prostate DU145 cancer cell line (prostate carcinoma), human ovarian cancer SKOV3 (ovarian carcinoma) cell line, colon Caco-2 cancer cell line (Colon Carcinoma), lung A549 cancer cell line (Lung carcinoma), lymphoblastoma K562 cancer cell line, melanoma B16F1 cancer cell line and colorectal HCT cancer cell line (Colorectal carcinoma), were grown and cultured using standard protocols known in the art. The cancer cell lines were treated with DMPBD in varying concentrations for measuring cytotoxicity. The estimation of the viability assay of the cells was done by the MTT (3-(4,5-dimethylthiazol-2-yl)-2,5-diphenyltetrazolium bromide) colorimetric assay. The MTT Assay measures the cell proliferation rate and conversely, when metabolic events lead to apoptosis or necrosis, the reduction in cell viability. The data is analyzed by plotting cell number versus absorbance allowing the quantification of changes in cell proliferation. The rate of tetrazolium reduction is proportional to the rate of cell proliferation. […]
(§2) The MTT Assay as performed was adapted from (1) Tim Mosmann. […] A tetrazolium-based colorimetric MTT assay to quantitate human monocyte mediated cytotoxicity against leukemic cells from cell lines and patients with acute myeloid leukemia. […]

[5] = test system: E-selectin (CD 62E); assay: Flow cytometry, E-selectin expression in pancreatic carcinoma cells; type: cell-based, human; details: flow cytometric studies
[6] = test system: lymphoblastoma K562 cancer cell line; assay: MTT cytotoxicity assay, K562; type: cell-based; details: Homo sapiens
Procedure: as §1, §2

[7] = test system: melanoma B16F1 cancer cell line; assay: MTT cytotoxicity assay, B16F1; type: cell-based, human; details: Mus musculus, B16-F1
Procedure: as §1, §2

[8] = test system: HCT cancer cell line (Colorectal carcinoma); assay: MTT cytotoxicity assay, HCT; type: cell-based; details: Homo sapiens
Procedure: as §1, §2

[9] = test system: P-selectin (CD 62P); assay: Flow cytometry, P-selectin expression in LNCap prostate carcinoma cells; type: cell-based, human; details: DMPBD 70 μg/ml, TNF-alpha and IL-1beta 10 ng/ml, 72 hours
[10] = test system: L-selectin (CD 62L); assay: Flow cytometry, L-selectin expression in LNCap prostate carcinoma cells; type: cell-based, human; details: DMPBD 20 μg/ml, TNF-alpha and IL-1beta 10 ng/ml, 72 hours
[11] = test system: P-selectin (CD 62P); assay: Flow cytometry, P-selectin expression in K562 lymphoblastoma cells; type: cell-based, human; details: TNF-alpha and IL-1beta 10 ng/ml, 72 hours
[12] = test system: DU145 cancer cell line (prostate carcinoma); assay: MTT cytotoxicity assay, DU145; type: cell-based; details: Homo sapiens, DU 145, prostate carcinoma
Procedure: as §1, §2

[13] = test system: PANC-1 cancer cell line (pancreatic carcinoma cells); assay: MTT cytotoxicity assay, PANC-1; type: cell-based; details: Homo sapiens, PANC-1, pancreatic carcinoma
Procedure: as §1, §2

[14] = test system: P-selectin (CD 62P); assay: Flow cytometry, P-selectin expression in HCT colorectal carcinoma cells; type: cell-based, human; details: TNF-alpha and IL-1beta 10 ng/ml, 72 hours
[15] = test system: L-selectin (CD 62L); assay: Flow cytometry, L-selectin expression in pancreatic carcinoma cells; type: cell-based, human; details: flow cytometric studies
[16] = test system: SKOV3 (ovarian carcinoma) cell line; assay: MTT cytotoxicity assay, SKOV3; type: cell-based; details: Homo sapiens, SK-OV-3
Procedure: as §1, §2

[17] = test system: A549 cancer cell line (Lung carcinoma); assay: MTT cytotoxicity assay, A549; type: cell-based; details: Homo sapiens
Procedure: as §1, §2

**Q.** For `C=C/C=C/c1ccc(OC)c(OC)c1` [DMPBD, (E)-1-(3′, 4′-Dimethoxyphenyl) butadiene], which “% Reduction of L-selectin expression” value ([1]; DMPBD 10 μg/ml) is on record?
**A.** 11.3%

**Q.** And the “% Reduction of L-selectin expression” value ([1]; DMPBD 20 μg/ml)?
**A.** 21.1%

**Q.** And the “% Reduction of L-selectin expression” value [2]?
**A.** 30.3%

**Q.** What about the “expression of P-selectin” value [3] of the same compound?
**A.** significant fold decrease

**Q.** What about the IC50 [4] of the same compound?
**A.** 39.3 µg/mL (≈ 207 µM)

**Q.** What about the “expression of E-selectin” value [5] of the same compound?
**A.** significant fold decrease

**Q.** What about the IC50 [6] of the same compound?
**A.** 22.5 µg/mL (≈ 118 µM)

**Q.** What about the IC50 [7] of the same compound?
**A.** 26.4 µg/mL (≈ 139 µM)

**Q.** And the IC50 [8]?
**A.** 25.5 µg/mL (≈ 134 µM)

**Q.** What about the “% Reduction of P-selectin expression” value [9] of the same compound?
**A.** 11.1%

**Q.** What about the “% Reduction of L-selectin expression” value [10] of the same compound?
**A.** 7.3%

**Q.** And the “% Reduction of P-selectin expression” value ([11]; DMPBD 10 μg/ml)?
**A.** 11.6%

**Q.** What about the “% Reduction of P-selectin expression” value ([11]; DMPBD 20 μg/ml) of the same compound?
**A.** 35.4%

**Q.** What about the IC50 [12] of the same compound?
**A.** 8.6 µg/mL (≈ 45.2 µM)

**Q.** And the IC50 [13]?
**A.** 4.2 µg/mL (≈ 22.1 µM)

**Q.** What about the “% Reduction of P-selectin expression” value ([14]; DMPBD 10 μg/ml) of the same compound?
**A.** 11.8%

**Q.** What about the “% Reduction of P-selectin expression” value ([14]; DMPBD 20 μg/ml) of the same compound?
**A.** 27.8%

**Q.** What about the “expression of L-selectin” value [15] of the same compound?
**A.** significant fold decrease

**Q.** What about the IC50 [16] of the same compound?
**A.** 13.5 µg/mL (≈ 71 µM)

**Q.** What about the IC50 [17] of the same compound?
**A.** 30.2 µg/mL (≈ 159 µM)
